Measurements published in publication PMC9127750, “Structure-based design of CDC42 effector interaction inhibitors for the treatment of cancer” (Cell reports, 2022).
Several values for one entry are separate records, joined by “and”; a condition that tells them apart may be missing. Identical values can stand only once.

Test system: WM3248 melanoma cells, 486 antibodies
Assay: Reverse phase protein arrays (RPPA)
Assay type: cell-based, Human
Settings: normalized to 0
Excerpt: Pellets were snap frozen in liquid nitrogen and shipped to MD Anderson Cancer Center core RPPA facility for RPPA analysis (Table S5). Three biological replicates for each sample were generated.
Nomenclatures on the RPPA heatmaps: name_of_antibody.species_of_antibody.status_of_antibody. V - antibody validated; C - validation of antibody in progress; Q - antibody nonspecific; E – under evaluation; antibodies raised in M - mouse, G - goat, R - rabbit, or T - rat.

## CN(C)c1cccc(Nc2cc(-c3ccccc3)nc(C3CCNCC3)n2)c1 [ARN22089, N1,N1-dimethyl-N3-(6-phenyl-2-(piperidin-4-yl)pyrimidin-4-yl)benzene-1,3-diamine]
5, average
  EMA.M.C Norm_5 Average: 0.850
  ENY2.M.C Norm_5 Average: 0.965
  ER.a.R.V Norm_5 Average: 1.001
  ERCC1.R.C Norm_5 Average: 0.948
  ERCC5.R.C Norm_5 Average: 1.084
  ERRalpha.R.V Norm_5 Average: 0.950
  EVI1.R.V Norm_5 Average: 0.922
  Elk1_pS383.R.C Norm_5 Average: 1.032
  Enolase.1.R.V Norm_5 Average: 1.052
  Enolase.2.R.V Norm_5 Average: 0.966
  EphA2.R.V Norm_5 Average: 0.884
  EphA2_pS897.R.C Norm_5 Average: 0.843
  EphA2_pY588.R.C Norm_5 Average: 0.929
  Erk5.R.V Norm_5 Average: 1.026
  FABP5.R.C Norm_5 Average: 0.959
  FAK.R.C Norm_5 Average: 0.977
  FAK_pY397.R.V Norm_5 Average: 0.931
  FANCD2.R.V Norm_5 Average: 0.930
  FASN.R.V Norm_5 Average: 1.111
  FGF.basic.R.C Norm_5 Average: 0.987
  FN14.R.C Norm_5 Average: 1.118
  FOXM1.R.V Norm_5 Average: 0.915
  FOXO3.R.V Norm_5 Average: 1.012
  FRS2.alpha_pY196.R.V Norm_5 Average: 0.996
  FTO.R.V Norm_5 Average: 1.020
  Fibronectin.R.V Norm_5 Average: 1.193
  FoxO3a_pS318_S321.R.C Norm_5 Average: 0.972
  G6PD.R.V Norm_5 Average: 0.950
  GATA3.M.V Norm_5 Average: 1.077
  GATA6.R.V Norm_5 Average: 0.971
  GCLM.R.V Norm_5 Average: 0.967
  GCN5L2.R.V Norm_5 Average: 1.021
  GGPS1.M.V Norm_5 Average: 0.977
  GRB2.R.V Norm_5 Average: 1.022
  GRB7.R.V Norm_5 Average: 0.976
  GSK.3a.b.M.V Norm_5 Average: 0.937
  GSK.3a.b_pS21_S9.R.V Norm_5 Average: 1.111
  Gab2.R.V Norm_5 Average: 1.100
  Gli1.R.C Norm_5 Average: 0.999
  Gli3.R.C Norm_5 Average: 1.056
  Glucocorticoid.Receptor.R.V Norm_5 Average: 1.053
  Glutamate.D1.2.R.V Norm_5 Average: 0.990
  Grp75.R.C Norm_5 Average: 1.021
  Gys.R.V Norm_5 Average: 0.987
  Gys_pS641.R.V Norm_5 Average: 0.978
  H2AX_pS139.R.C Norm_5 Average: 1.026
  H2AX_pS140.M.C Norm_5 Average: 0.967
  HER2.M.V Norm_5 Average: 0.971
  HER2_pY1248.R.V Norm_5 Average: 1.023
  HER3.R.V Norm_5 Average: 0.924
  HER3_pY1289.R.C Norm_5 Average: 1.060
  HES1.R.V Norm_5 Average: 1.168
  eEF2.R.C Norm_5 Average: 1.217
  eEF2K.R.V Norm_5 Average: 1.024
  eIF4E.R.V Norm_5 Average: 1.028
  eIF4E_pS209.R.V Norm_5 Average: 0.945
5, replicates 1-3
  DNMT1.R.V Norm_5: 0.988 and 0.998 and 1.098
  DRP1.R.V Norm_5: 0.998 and 1.001
  DUSP4.R.V Norm_5: 1.082 and 1.118 and 1.119
  DUSP6.R.C Norm_5: 1.285 and 1.005 and 1.269
  DYRK1B.R.C Norm_5: 0.880 and 0.877 and 1.004
  Dvl3.R.V Norm_5: 0.981 and 1.018 and 0.968
  E2F1.R.V Norm_5: 0.990 and 0.958 and 0.964
  E.Cadherin.R.V Norm_5: 0.812 and 0.783 and 0.958
  EGFR.R.V Norm_5: 0.998 and 1.139 and 0.952
  EGFR_pY1068.R.C Norm_5: 0.901 and 0.903 and 1.000
  EGFR_pY1173.R.V Norm_5: 1.024 and 1.026 and 1.016
  EMA.M.C Norm_5: 0.673 and 0.895 and 0.983
  ENY2.M.C Norm_5: 0.935 and 1.052 and 0.908
  ER.a.R.V Norm_5: 0.980 and 1.004 and 1.018
  ER.a_pS118.R.V Norm_5: 1.247
  ERCC1.R.C Norm_5: 0.895 and 0.962 and 0.988
  ERCC5.R.C Norm_5: 1.145
  ERRalpha.R.V Norm_5: 0.932 and 0.933 and 0.985
  EVI1.R.V Norm_5: 0.871 and 0.956 and 0.940
  Elk1_pS383.R.C Norm_5: 1.029
  Enolase.1.R.V Norm_5: 1.006 and 1.195 and 0.954
  Enolase.2.R.V Norm_5: 0.936 and 1.012
  EphA2.R.V Norm_5: 0.843 and 0.933 and 0.875
  EphA2_pS897.R.C Norm_5: 0.767 and 0.950 and 0.814
  EphA2_pY588.R.C Norm_5: 0.881 and 0.946 and 0.960
  Erk5.R.V Norm_5: 0.987 and 1.054
  Ets.1.R.V Norm_5: 1.139 and 1.226 and 0.851
  FABP5.R.C Norm_5: 1.017 and 1.210 and 0.650
  FAK.R.C Norm_5: 0.898 and 1.113 and 0.922
  FAK_pY397.R.V Norm_5: 0.881 and 0.907 and 1.006
  FANCD2.R.V Norm_5: 0.905 and 0.913 and 0.972
  FASN.R.V Norm_5: 1.237 and 1.011 and 1.085
  FGF.basic.R.C Norm_5: 0.849
  FN14.R.C Norm_5: 1.117 and 1.165
  FOXM1.R.V Norm_5: 0.776 and 0.924 and 1.046
  FOXO3.R.V Norm_5: 0.964 and 1.056 and 1.017
  FRS2.alpha_pY196.R.V Norm_5: 0.883 and 1.011
  FTO.R.V Norm_5: 1.133 and 0.883
  Fibronectin.R.V Norm_5: 1.256 and 1.230
  FoxO3a_pS318_S321.R.C Norm_5: 0.972 and 1.006
  G6PD.R.V Norm_5: 0.921 and 1.016 and 0.913
  GATA3.M.V Norm_5: 1.233 and 0.961
  GATA6.R.V Norm_5: 0.980 and 0.952 and 0.979
  GCLC.R.C Norm_5: 1.128 and 0.940
  GCLM.R.V Norm_5: 0.953 and 1.003
  GCN5L2.R.V Norm_5: 0.975 and 1.052
  GGPS1.M.V Norm_5: 0.942
  GRB2.R.V Norm_5: 0.966 and 1.023 and 1.076
  GRB7.R.V Norm_5: 1.030 and 0.936 and 0.962
  GSK.3B.R.C Norm_5: 0.980 and 1.031 and 1.125
  GSK.3a.b.M.V Norm_5: 1.010 and 0.971 and 0.830
  GSK.3a.b_pS21_S9.R.V Norm_5: 1.277 and 1.230
  Gab2.R.V Norm_5: 1.236 and 1.059 and 1.006
  Gli1.R.C Norm_5: 0.936 and 0.961 and 1.099
  Gli3.R.C Norm_5: 1.128 and 1.124 and 0.916
  Glucocorticoid.Receptor.R.V Norm_5: 1.063 and 1.061 and 1.034
  Glutamate.D1.2.R.V Norm_5: 1.128 and 0.932
  Glutaminase.R.C Norm_5: 1.249 and 0.891
  Granzyme.B.R.V Norm_5: 1.216 and 0.936
  Grp75.R.C Norm_5: 0.988 and 1.124 and 0.950
  Gys.R.V Norm_5: 0.964 and 0.981 and 1.016
  Gys_pS641.R.V Norm_5: 1.014 and 0.854
  H2AX_pS139.R.C Norm_5: 1.023 and 1.013
  H2AX_pS140.M.C Norm_5: 0.966 and 1.110 and 0.827
  HER2.M.V Norm_5: 0.993 and 0.940 and 0.980
  HER2_pY1248.R.V Norm_5: 0.876 and 1.016
  HER3.R.V Norm_5: 0.898 and 0.946 and 0.928
  HER3_pY1289.R.C Norm_5: 1.034 and 1.212 and 0.933
  HES1.R.V Norm_5: 1.299 and 1.047 and 1.158
  Heregulin.R.V Norm_5: 1.014 and 1.131 and 1.059
  eEF2.R.C Norm_5: 1.519 and 1.622 and 0.509
  eEF2K.R.V Norm_5: 1.078 and 1.168
  eIF4E.R.V Norm_5: 0.986 and 1.010
  eIF4E_pS209.R.V Norm_5: 0.988 and 0.981
  eIF4G.R.C Norm_5: 1.060 and 1.058 and 1.164
10, average
  DNMT1.R.V Norm_10 Average: 1.056
  DRP1.R.V Norm_10 Average: 0.998
  DUSP4.R.V Norm_10 Average: 0.891
  DUSP6.R.C Norm_10 Average: 1.050
  DYRK1B.R.C Norm_10 Average: 0.948
  Dvl3.R.V Norm_10 Average: 0.962
  E2F1.R.V Norm_10 Average: 1.083
  E.Cadherin.R.V Norm_10 Average: 0.939
  EGFR.R.V Norm_10 Average: 0.975
  EGFR_pY1068.R.C Norm_10 Average: 0.957
  EMA.M.C Norm_10 Average: 0.953
  ER.a.R.V Norm_10 Average: 0.921
  ERCC5.R.C Norm_10 Average: 0.962
  ERRalpha.R.V Norm_10 Average: 1.014
  EVI1.R.V Norm_10 Average: 1.011
  Elk1_pS383.R.C Norm_10 Average: 0.998
  Enolase.1.R.V Norm_10 Average: 1.160
  EphA2.R.V Norm_10 Average: 0.919
  EphA2_pS897.R.C Norm_10 Average: 0.866
  EphA2_pY588.R.C Norm_10 Average: 0.941
  Erk5.R.V Norm_10 Average: 0.877
  Ets.1.R.V Norm_10 Average: 1.306
  FABP5.R.C Norm_10 Average: 1.237
  FAK.R.C Norm_10 Average: 0.954
  FANCD2.R.V Norm_10 Average: 0.930
  FASN.R.V Norm_10 Average: 0.962
  FGF.basic.R.C Norm_10 Average: 0.946
  FOXM1.R.V Norm_10 Average: 0.929
  FOXO3.R.V Norm_10 Average: 1.081
  FRS2.alpha_pY196.R.V Norm_10 Average: 1.373
  FTO.R.V Norm_10 Average: 1.099
  Fibronectin.R.V Norm_10 Average: 1.015
